Measurements as given in patent US20250099420A1, “SMALL MOLECULE MODULATORS OF GPR139 COMPLEX” (University of Florida Research Foundation, Incorporated, priority 2022, published 2025).

Legend:
GPR139 [1] = molecular target: T1, GPR139 (Homo sapiens, UniProt Q6DWJ6)
T1 sequence (Q6DWJ6 1-353): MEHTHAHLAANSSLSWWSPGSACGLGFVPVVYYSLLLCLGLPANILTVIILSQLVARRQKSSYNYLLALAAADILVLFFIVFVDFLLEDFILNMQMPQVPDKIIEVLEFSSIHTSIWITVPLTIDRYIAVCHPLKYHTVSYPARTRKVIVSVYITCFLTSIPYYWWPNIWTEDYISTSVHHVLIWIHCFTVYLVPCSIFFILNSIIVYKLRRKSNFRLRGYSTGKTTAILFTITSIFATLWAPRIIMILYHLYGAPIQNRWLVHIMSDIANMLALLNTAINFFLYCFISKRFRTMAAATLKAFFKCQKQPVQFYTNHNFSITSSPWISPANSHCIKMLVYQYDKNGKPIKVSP
Procedure: (§1) GPR activity was assessed using a calcium detection assay. GPR139 agonists stimulate an increase in intracellular calcium in HEK-GPR139 cells. Agonists increase the release of intracellular calcium, while antagonists decrease the release of intracellular calcium, as compared to an EC80 stimulation of the know agonist S-JNJ-63533054. The positive control for the agonist mode was cells treated with EC100 of known agonist S-JNJ-63533054. Negative control samples were treated with DMSO. The antagonist high control in cells was EC80 of S-JNJ-63533054+IC100 S-JNJ-3792165, while cells were treated with EC80 of S-JNJ-63533054+DMSO for the low control. Intracellular calcium was measured using Calcium 5.
(§2) HEK cells were transfected the DNA encoding GPR139 and incubated for 24 hours. 3000 cells/well in 3 μL HEPES and 1% DMSO were seeded into 1536-well plates. 3 μL Calcium 5 was then added to each well and cells were incubated for 60 min. at 37° C. in 5% CO2 and 95% relative humidity. Cells were pretreated with 50 nL DMSO (5 min. at room temperature in the dark) to stabilize response and desensitize cells to DMSO. A 5 second basal read was recorded and compounds in 30 nL were added to the cells, followed by a 150 second read.
(§3) B. Antagonist Mode: The “High Control” represented wells containing cells with GPR139+Antagonist IC100+Agonist EC80. “Low Control” represented wells containing cells with GPR139 with EC100 Agonist. “0% control” and sample field represented wells containing cells with GPR139 with EC80 Agonist with DMSO or compounds. The Z′ and S:B for this assay were calculated using the High Control and Low Control wells.
(§4) The HEK parental counterscreen utilized the same cells but not transfected with the plasmid. Acetylcholine was used in place of GPR139 agonist as the control compound. The cells were plated overnight, similar to the HEK antagonist counterscreen protocol.
(§5) The GPR139 Agonist and Antagonist titration assays employed the same reagents, protocols, and detection systems as the primary assays, but tested each as 10 point dose response starting at 676 nM concentration in triplicate with 1:3 dilutions. The HEK parental counterscreens utilized the same cells but not transfected with the plasmid. Acetylcholine was used in place of GPR139 agonist as the control compound. The cells were plated overnight, similar to the HEK antagonist counterscreen protocol.
(§6) For each test compound, percent activation was plotted against compound concentration. A four parameter equation describing a sigmoidal dose-response curve was then fitted with adjustable baseline using Assay Explorer software (Symyx Technologies Inc.).

GPR139 [2] = molecular target: T1, GPR139; assay: GPR139 Antagonist titration assay (calcium detection, HEK-GPR139 cells, vs EC80 of S-JNJ-63533054); settings: for GPR139 Antagonist Activity Averaged Max % Response (±St. Dev.): activity relative to known control; for GPR139 Antagonist Activity Hill Slope: fitted dose-response curve
Procedure: as §1, §2, §3, §4, §5, §6

parental HEK cells = assay: HEK parental Antagonist Counterscreen Assay (non-transfected cells, acetylcholine control); type: cell-based
Source text: C. […] The HEK parental counterscreen utilized the same cells but not transfected with the plasmid. The agonist and antagonist modes were run the same way as the primary screen but acetylcholine was used in place of GPR139 agonist as the control compound.
The HEK parental counterscreen utilized the same cells but not transfected with the plasmid. The antagonist modes assays utilized the cells being plated in the 1536 well plate overnight in growth media prior to dye loading in PDL coated plates and acetylcholine was used in place of GPR139 agonist as the control compound.
as §4
The HEK parental counterscreens utilized the same cells but not transfected with the plasmid. Acetylcholine was used in place of GPR139 agonist as the control compound. The cells were plated overnight, similar to the HEK antagonist counterscreen protocol.
as §6

GPR139 [3] = molecular target: T1, GPR139; assay: GPR139 Agonist titration / agonist counterscreen assay (calcium detection, HEK-GPR139 cells); type: cell-based; parameters: expressed in transfected cells; host or cells: HEK Aequorin cells, Maxcyte transient transfection; settings: agonist counterscreen of the antagonists; for EC50: scientific notation, molarity, read-out: GRP139 Agonist activity EC50
Procedure: GPR activity was assessed using a calcium detection assay. […] Negative control samples were treated with DMSO. […] Intracellular calcium was measured using Calcium 5.

GPR139 Antagonist Activity Lipophilic Efficiency (logD) (GPR139 [1]) | GPR139 Antagonist Activity Lipophilic Efficiency (logP) (GPR139 [1]) | GPR139 Antagonist Activity Ligand Efficiency (GPR139 [2]) | GPR139 Antagonist Activity Averaged Max % Response (±St. Dev.) (GPR139 [2]) [%] | GPR139 Antagonist Activity Hill Slope (GPR139 [2]) | GRP139 Agonist activity Averaged Max % Response (±St. Dev.) (GPR139 [3]) | EC50 (GPR139 [3]) [µM] | GRP139 Agonist activity Hill Slope (GPR139 [3]) | Compound | HEK antagonist activity Averaged Max % Response (±St. Dev.) (parental HEK cells) [%]
1.95 | 1.94 | 0.28 | 90.37 ± 1.31 | 0.68 | 8.07 ± 1.27% | > 14.1 | – | Cc1cc(C(=O)N/N=C/c2cn(Cc3ccccc3)c3ccccc23)n[nH]1 [SR-01000110742] | 24.28 ± 7.95
0.81 | 0.81 | 0.24 | 86.39 ± 3.49 | 0.71 | 1.62 ± 7.06% | > 12.1 | – | Cc1ccc(CNC(=O)CSc2nc3ccsc3c(=O)n2NC(=O)c2cccc(Br)c2)cc1 [SR-01000564946] | 30.88 ± 11.77
−768.6E−3 | −768.8E−3 | 0.28 | 90.42 ± 3.10 | 0.57 | 13.90 ± 4.27% | > 13.2 | – | Cc1cccc(-n2cc(-c3ccccc3)nc2SCC(=O)Nc2ccccc2C)c1 [SR-01000555475] | 9.07 ± 0.74
−1.3E+0 | −1.3E+0 | 0.24 | 52.97 ± 3.58 | 0.71 | 2.28 ± 5.10% | > 13.3 | – | Cc1ccc(-n2cc(-c3ccccc3)nc2SCC(=O)Nc2ccccc2)cc1 [SR-01000555455] | 6.61 ± 6.46
−546.E−3 | −780.8E−3 | 0.18 | 94.71 ± 3.14 | 0.39 | 96.44 ± 1.50% | 13.2 | 10.54 | COc1ccc(C2=NN(C3CCCCCC3)C(=O)[C@@H]3CC=CC[C@@H]23)cc1OCCCCOc1ccc(-c2nn[nH]n2)cc1 [SR-05000022540] | 6.21 ± 10.10
−1.9E+0 | −1.9E+0 | 0.24 | 69.58 ± 6.90 | 1.30 | 7.97 ± 3.98% | > 11.9 | – | Cc1ccc(-n2cc(-c3ccccc3)nc2SCC(=O)Nc2cccc(C)c2C)cc1 [SR-01000555460] | 8.34 ± 10.04
2.05 | 1.85 | 0.18 | 68.96 ± 6.17 | 0.63 | 4.26 ± 2.46% | > 13.9 | – | O=C(NCCCN1CCCC1=O)c1ccc(NCc2ccc(F)cc2)c(S(=O)(=O)Nc2cccc(C(F)(F)F)c2)c1 [SR-01000575726] | 42.61 ± 24.54
−850.1E−3 | −850.1E−3 | 0.23 | 81.12 ± 9.72 | 0.67 | 9.47 ± 9.31% | > 12.1 | – | CCc1ccccc1NC(=O)CSc1nnc(-c2ccccc2)c(-c2ccccc2)n1 [SR-01000581835] | 8.20 ± 4.35
−672.3E−3 | −672.4E−3 | 0.25 | 71.06 ± 5.55 | 0.45 | −854E−3 ± 6.10 ^ % | > 14.5 | – | O=C(CSc1nc(-c2ccccc2)cn1-c1ccccc1)Nc1ccc(F)cc1 [SR-01000555394] | 31.37 ± 1.24
−1.5E+0 | −1.5E+0 | 0.24 | 69.32 ± 5.67 | 1.62 | 4.27 ± 6.30% | > 11 | – | Cc1ccc(-c2cn(-c3ccccc3)c(SCC(=O)Nc3ccccc3C)n2)cc1 [SR-01000555444] | 6.69 ± 8.37
−548.5E−3 | −548.6E−3 | 0.26 | 78.69 ± 5.10 | 0.44 | 12.88 ± 6.35% | > 13.2 | – | COc1ccccc1-n1cc(-c2ccccc2)nc1SCC(=O)Nc1cccc(C)c1C [SR-01000555431] | 3.15 ± 12.32
−52.3E−3 | −52.4E−3 | 0.24 | 54.78 ± 3.56 | 1.21 | 3.20 ± 6.96% | > 11.2 | – | CC(C)C(=O)N1CCN(c2nc(-c3ccccc3)c3c(c2C#N)CCCC3)CC1 [SR-01000000597] | 14.40 ± 10.68
−954.3E−3 | −954.4E−3 | 0.25 | 77.29 ± 7.71 | 1.40 | 5.29 ± 2.24% | > 14 | – | Cc1ccc(-n2cc(-c3ccccc3)nc2SCC(=O)Nc2ccc(F)cc2)cc1 [SR-01000555461] | 0.37 ± 8.79
